Results reported in patent publication US7741327B2 (Hoffmann-La Roche Inc., priority 2008, dated 2010).

The compounds below were run against T1, Recombinant human liver GK1 (GST-GK) (Homo sapiens, UniProt P35557) (assay: In vitro glucokinase activity (G6PDH-coupled NADH assay)). Details: 30° C., 5 mM D-glucose, 10% DMSO.
T1 construct: made in house; host or cells: E. coli
T1 sequence (P35557 1-466 isoform P35557-2): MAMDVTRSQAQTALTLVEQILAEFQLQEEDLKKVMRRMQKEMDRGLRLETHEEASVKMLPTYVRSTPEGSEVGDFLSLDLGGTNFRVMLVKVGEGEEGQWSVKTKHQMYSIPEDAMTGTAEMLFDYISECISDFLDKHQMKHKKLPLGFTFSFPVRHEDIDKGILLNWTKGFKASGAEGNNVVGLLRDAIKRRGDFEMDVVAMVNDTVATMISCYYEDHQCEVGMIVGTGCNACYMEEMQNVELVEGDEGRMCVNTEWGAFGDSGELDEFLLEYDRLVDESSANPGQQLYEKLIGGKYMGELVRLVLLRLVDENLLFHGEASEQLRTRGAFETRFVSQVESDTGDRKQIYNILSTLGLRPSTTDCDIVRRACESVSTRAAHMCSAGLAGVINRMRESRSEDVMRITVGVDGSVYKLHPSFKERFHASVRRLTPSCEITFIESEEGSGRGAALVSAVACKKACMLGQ
Type: biochemical
Method: Glucokinase In Vitro Assay Protocol: Glucokinase (GK) was assayed by coupling the production of glucose-6-phosphate to the generation of NADH with glucose-6-phosphate dehydrogenase (G6PDH, 0.75-1 kunits/mg; Boehringer Mannheim, Indianapolis, Ind.) from Leuconostoc mesenteroides as the coupling enzyme (Scheme 2).
Recombinant human liver GK1 was expressed in E. coli as a glutathione S-transferase fusion protein (GST-GK) [Liang et al, 1995] and was purified by chromatography over a glutathione-Sepharose 4B affinity column using the procedure provided by the manufacturer (Amersham Pharmacia Biotech, Piscataway, N.J.).
The assay was conducted at 30° C. in a flat bottom 96-well tissue culture plate from Costar (Cambridge, Mass.) with a final incubation volume of 120 μL. The incubation reaction contained the following: 25 mM Hepes buffer (pH 7.1), 25 mM KCl, 5 mM D-glucose, 1 mM ATP, 1.8 mM NAD, 2 mM MgCl2, 1 μM sorbitol-6-phosphate, 1 mM dithiothreitol, test drug or 10% dimethylsulfoxide, ˜7 units/ml G6PDH, and GK (see below). All organic reagents were >98% pure and were from Boehringer Mannheim with the exceptions of D-glucose and Hepes which were from Sigma Chemical Co, St Louis, Mo. Test compounds were dissolved in dimethylsulfoxide and were added to the incubation reaction minus GST-GK in a volume of 12 μL to yield a final dimethylsulfoxide concentration of 10%. This mix was pre-incubated in the temperature controlled chamber of a SPECTRAmax 250 microplate spectrophotometer (Molecular Devices Corporation, Sunnyvale, Calif.) for 10 min to allow temperature equilibrium and then the reaction was started by the addition of 20 μL GST-GK.
After addition of enzyme, the increase in optical density (OD) at 340 nm was monitored spectrophotometrically to determine the rate of change (OD340 per min). The GK activity (OD340/min) in control wells (10% DMSO minus GK activators) was compared with the activity in wells containing test GK activators, and the concentration of activator that produced a 50% increase in the activity of GK, i.e., the SC1.5, was calculated. The table below provides the in vitro glucokinase activity for the compounds in the Examples: […]

| Compound | SC1.5 (concentration of activator that produced a 50% increase in the activity of GK) |
| --- | --- |
| COc1ccccc1OC1=CC(=O)N(C(COC(C)(C)C)C(=O)Nc2ccn(CC(C)(C)O)n2)C1 (stereo not shown) [Example 35, 3-t-Butoxy-N-[1-(2-hydroxy-2-methyl-propyl)-1H-pyrazol-3-yl]-2-[4-(2-methoxy-phenoxy)-2-oxo-2,5-dihydro-pyrrol-1-yl]-propionamide] | 9.491 µM |
| CC(C)(O)Cn1ccc(NC(=O)C(C[C@H]2C[C@H](C)C2)N2CC(Oc3ccccc3Cl)=CC2=O)n1 (stereo partly drawn) [Example 214, 2-[4-(2-Chloro-phenoxy)-2-oxo-2,5-dihydro-pyrrol-1-yl]-N-[1-(2-hydroxy-2-methyl-propyl)-1H-pyrazol-3-yl]-3-(trans-3-methyl-cyclobutyl)-propionamide] | 0.043 µM |
| CC(C)C[C@@H](C(=O)Nc1ccn(C[C@@H]2COC(C)(C)O2)n1)N1CC(Oc2cccc(N3CCCC3)c2F)=CC1=O [Example 141, (S)-2-[4-(2-Fluoro-3-pyrrolidin-1-yl-phenoxy)-2-oxo-2,5-dihydro-pyrrol-1-yl]-4-methyl-pentanoic acid [1-((R)-2,2-dimethyl-[1,3]dioxolan-4-yl-methyl)-1H-pyrazol-3-yl]-amide] | 0.516 µM |
| CC(C)C[C@@H](C(=O)Nc1ccn(C[C@@H](O)CO)n1)N1CC(Oc2cccc(N(C)C)c2F)=CC1=O.Cl [Example 140, (S)-2-[4-(3-Dimethylamino-2-fluoro-phenoxy)-2-oxo-2,5-dihydro-pyrrol-1-yl]-4-methyl-pentanoic acid [1-((R)-2,3-dihydroxy-propyl)-1H-pyrazol-3-yl]-amide hydrochloride] | 0.37 µM |
| Cc1ccccc1OC1=CC(=O)N([C@@H](CC(C)C)C(=O)Nc2ccn(CCO[Si](C)(C)C(C)(C)C)n2)C1 [Example 121, (S)-4-Methyl-2-(2-oxo-4-o-tolyloxy-2,5-dihydro-pyrrol-1-yl)-pentanoic acid {1-[2-(t-butyl-dimethyl-silanyloxy)-ethyl]-1H-pyrazol-3-yl}-amide] | 0.746 µM |
| Cc1ccccc1OC1=CC(=O)N([C@@H](CC(C)C)C(=O)Nc2ccn(C)n2)C1 [Example 120, (S)-4-Methyl-2-(2-oxo-4-o-tolyloxy-2,5-dihydro-pyrrol-1-yl)-pentanoic acid (1-methyl-1H-pyrazol-3-yl)-amide] | 0.72 µM |
| COC(C)(C)Cn1ccc(NC(=O)[C@H](CC2CCCC2)N2CC(OC(C)C)=CC2=O)n1 [Example 22, (S)-3-Cyclopentyl-N-[1-(2-methoxy-2-methyl-propyl)-1H-pyrazol-3-yl]-2-(4-isopropoxy-2-oxo-2,5-dihydro-pyrrol-1-yl)-propionamide] | 1.048 µM |
| COC1=CC(=O)N([C@@H](CC2CCCCC2)C(=O)Nc2ccn(CC(C)(C)O)n2)C1 [Example 56, (S)-3-Cyclohexyl-N-[1-(2-hydroxy-2-methyl-propyl)-1H-pyrazol-3-yl]-2-(4-methoxy-2-oxo-2,5-dihydro-pyrrol-1-yl)-propionamide] | 4.985 µM |
| CC1(C)OC[C@@H](Cn2ccc(NC(=O)[C@H](Cc3c(F)cccc3F)N3CC(Oc4ccccc4Cl)=CC3=O)n2)O1 [Example 184, (S)-2-[4-(2-chloro-phenoxy)-2-oxo-2,5-dihydro-pyrrol-1-yl]-N-[1-((R)-2,2-dimethyl-[1,3]dioxolan-4-yl-methyl)-1H-pyrazol-3-yl]-3-(2,6-difluoro-phenyl)-propionamide] | 0.617 µM |
| CC(C)C[C@@H](C(=O)Nc1ccn(CC(C)(C)O)n1)N1CC(Oc2cccc(CC(C)(C)O)c2)=CC1=O [Example 236, (S)-2-{4-[3-(2-Hydroxy-2-methyl-propyl)-phenoxy]-2-oxo-2,5-dihydro-pyrrol-1-yl}-4-methyl-pentanoic acid [1-(2-hydroxy-2-methyl-propyl)-1H-pyrazol-3-yl]-amide] | 0.823 µM |
| CCOc1ccc(F)c(OC2=CC(=O)N([C@@H](CC(C)C)C(=O)Nc3ccn(CC(C)(C)O)n3)C2)c1F [Example 260, (S)-2-[4-(3-Ethoxy-2,6-difluoro-phenoxy)-2-oxo-2,5-dihydro-pyrrol-1-yl]-4-methyl-pentanoic acid [1-(2-hydroxy-2-methyl-propyl)-1H-pyrazol-3-yl]-amide] | 0.024 µM |
| CC(C)C[C@@H](C(=O)Nc1ccn(C[C@@H](O)CO)n1)N1CC(Oc2cccc3c2cnn3C)=CC1=O [Example 240, (S)-4-Methyl-2-[4-(1-methyl-1H-indazol-4-yloxy)-2-oxo-2,5-dihydro-pyrrol-1-yl]-pentanoic acid [1-((R)-2,3-dihydroxy-propyl)-1H-pyrazol-3-yl]-amide] | 2.636 µM |
| CC(C)C[C@@H](C(=O)Nc1ccn(C[C@@H](N)CO)n1)N1CC(Oc2ccccc2Cl)=CC1=O [Example 180, (S)-2-[4-(2-chloro-phenoxy)-2-oxo-2,5-dihydro-pyrrol-1-yl]-4-methyl-pentanoic acid [1-((R)-2-amino-3-hydroxy-propyl)-1H-pyrazol-3-yl]-amide] | 6.393 µM |
| Cl.Cn1ccc(NC(=O)[C@H](CC2CCCCC2)N2CC(Oc3c(F)ccc(Cl)c3F)=CC2=O)n1 [Example 75, (S)-2-[4-(3-Chloro-2,6-difluoro-phenoxy)-2-oxo-2,5-dihydro-pyrrol-1-yl]-3-cyclohexyl-N-(1-methyl-1H-pyrazol-3-yl)-propionamide Hydrochloride] | 0.037 µM |
| Cc1ccccc1OC1=CC(=O)N([C@@H](CC(C)C)C(=O)Nc2ccn(C[C@@H]3COC(C)(C)O3)n2)C1 [Example 123, (S)-4-Methyl-2-(2-oxo-4-o-tolyloxy-2,5-dihydro-pyrrol-1-yl)-pentanoic acid [1-((R)-2,2-dimethyl-[1,3]dioxolan-4-yl-methyl)-1H-pyrazol-3-yl]-amide] | 1.294 µM |
| Cc1cccc(OC2=CC(=O)N([C@@H](CC(C)C)C(=O)Nc3ccn(C[C@@H]4COC(C)(C)O4)n3)C2)c1F [Example 130, (S)-2-[4-(2-Fluoro-3-methyl-phenoxy)-2-oxo-2,5-dihydro-pyrrol-1-yl]-4-methyl-pentanoic acid [1-((R)-2,2-dimethyl-[1,3]dioxolan-4-yl-methyl)-1H-pyrazol-3-yl]-amide] | 0.26 µM |
| COc1cccc(OC2=CC(=O)N([C@@H](CC3CCCC3)C(=O)Nc3ccn(C[C@@H](O)CO)n3)C2)c1Cl [Example 55, (S)-2-[4-(2-Chloro-3-methoxy-phenoxy)-2-oxo-2,5-dihydro-pyrrol-1-yl]-3-cyclopentyl-N-[1-((R)-2,3-dihydroxy-propyl)-1H-pyrazol-3-yl]-propionamide] | 0.007 µM |
| Cc1ccc(OC2=CC(=O)N([C@@H](CC3CCCCC3)C(=O)Nc3ccn(CC(C)(C)O)n3)C2)cn1 [Example 212, (S)-3-cyclohexyl-N-[1-(2-hydroxy-2-methyl-propyl)-1H-pyrazol-3-yl]-2-[4-(6-methyl-pyridin-3-yloxy)-2-oxo-2,5-dihydro-pyrrol-1-yl]-propionamide] | 0.054 µM |
| CC[C@H](C)CC(C(=O)Nc1ccn(C[C@@H](O)CO)n1)N1CC(Oc2ccccc2Cl)=CC1=O (mixture of isomers) [Example 249, (S)-2-[4-(2-Chloro-phenoxy)-2-oxo-2,5-dihydro-pyrrol-1-yl]-4-methyl-hexanoic acid [1-((R)-2,3-dihydroxy-propyl)-1H-pyrazol-3-yl]-amide] | 0.125 µM |
